According to patent US5364772A, “DNA molecule encoding the β3 -adrenergic receptor” (Wayne State University, priority 1992, dated 1994):
Values belong to the molecule of their own block, whether it stands above or below them.

Tests used:
[1] = tested on: truncated (402 amino acids) human β3-adrenergic receptor; conditions: cited from earlier work; for inhibition at the truncated receptor: Emorine et al., 1989
[2] = target: T1, full length (408 amino acids) human β3-adrenergic receptor (Homo sapiens, UniProt P13945); assay: Functional activity (adenylyl cyclase) at full-length human β3 receptor expressed in CHO cells; type: biochemical
T1 construct: CHO cells expressing the full length human β3 receptor are harvested; expressed in transfected cells
T1 sequence (P13945 whole entry): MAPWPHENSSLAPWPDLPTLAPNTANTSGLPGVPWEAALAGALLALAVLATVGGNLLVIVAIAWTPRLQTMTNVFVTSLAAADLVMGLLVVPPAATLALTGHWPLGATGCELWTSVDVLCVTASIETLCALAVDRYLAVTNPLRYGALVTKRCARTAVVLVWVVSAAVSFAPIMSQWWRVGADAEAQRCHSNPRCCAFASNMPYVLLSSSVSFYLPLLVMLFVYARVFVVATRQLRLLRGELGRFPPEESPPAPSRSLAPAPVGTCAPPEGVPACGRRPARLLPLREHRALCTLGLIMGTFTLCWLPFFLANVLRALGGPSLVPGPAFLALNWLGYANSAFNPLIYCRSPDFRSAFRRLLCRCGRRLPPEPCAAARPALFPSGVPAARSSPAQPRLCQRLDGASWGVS
Experimental: Culture medium was removed and cells were washed in phosphate-buffered saline and then harvested in 25 mM HEPES (pH 8.0) buffer containing 2 mM MgCl2 and 1 mM EDTA. Cell were homogenized and centrifuged at 48,000×g for 15 min. to obtain crude membranes. Membrane pellets were resuspended and used directly or frozen at -80° until used. […] Membranes (5-15 μg of protein) were preincubated at 4°, in a volume of 40 μl, with the specified drugs for 15 min. Adenylyl cyclase reactions were initiated by addition of substrate mixture and were terminated after 30 min at 30°. […] Concentration-response data were analyzed by nonlinear regression analysis with a one-site mass action equation for transfected CHO cells (Enzfitter, Elsevier Biosoft).
Chinese hamster ovary (CHO) cells are transfected with constructs based upon the expression vector pRc/CMV. […] Transfection of CHO cells with DNA constructs is accomplished by the CaPO4 -DNA precipitation method as described in Maniatis et al., ibid. To obtain cells that stably express these DNA constructs, transfected cells are selected based upon their resistance to G418, which is conferred by the neomycin-resistance gene contained in pRc/CMV. Cells that survive selective conditions (e.g. 800 μg/ml G418) are then cloned by limiting dilution.
CHO cells expressing the full length human β3 receptor are harvested and membranes prepared as described by Granneman et al., ibid. Adenylyl cyclase activity is then determined in response to various agents known or thought to interact with the β3 receptor, using the method of Salomon, ibid. Agonists are identified by the ability to increase cyclic AMP generation above basal levels. Antagonists are identified by their ability to decrease adenylyl cyclase activity that is stimulated by 100 nM isoproterenol.

[3] = tested on: adipose tissue-specific genes; conditions: Kletzien et al., 1992; cited from earlier work

SMILES: CC(Cc1ccc(OCC(=O)O)cc1)NCC(O)c1cccc(Cl)c1 (stereo not shown) [BRL 37344]
- agonist character [1]: partial agonists
- agonist character ([2]; full length receptor): partial agonists
- activation potency ([2]; full-length receptor): relatively low potency

SMILES: CC1(COc2ccc(CC3SC(=O)NC3=O)cc2)CCCCC1 (stereo not shown) [Cigilazone]
- effect on expression of adipose tissue-specific genes [3]: augment the expression of adipose tissue-specific genes

SMILES: CC(C)NCC(O)COc1cccc2ccccc12 (stereo not shown) [Propranolol]
- inhibition at the truncated receptor [1]: essentially inactive

- potency of inhibition of the full length receptor (antagonists) ([2]; full length receptor): submicromolar potencies
SMILES: C=CCc1ccccc1OCC(O)CNC(C)C (stereo not shown) [alprenolol]
- inhibition at the truncated receptor [1]: essentially inactive
